Data taken from patent US8821568B2, “Implant modified with non-hydroxylated vitamin D precursors” (Numat Biomedical S.L., priority 2008, dated 2014).

Tests used:
Type in all cases: cell-based, mouse
MC3T3-E1 cells [1] = assay: Real-time RT-PCR of bone markers, plastic wells; settings: TCP; 2 days; 2×10^−2 nmols, not irradiated, compared to control
Description: (§1) To test the effect of the different treatments onto the plastic wells, 96-well plates made of polystyrene were used and the treatments with 7-DHC performed directly onto them. Cells grown onto untreated TCP were added as a control for all the experiments. Cells were seeded at a density of 30,000 cells/cm^2 and they were maintained in α-MEM supplemented with 10% FCS and antibiotics. Culture media was collected after 48 hours, to test cytotoxicity and the production of the hydroxylated forms of vitamin D. Cells were harvested after 2 days of culture using Trizol reagent (Roche Diagnostics, Mannheim, Germany), to analyse early gene expression response of several osteoblast differentiation markers and enzymes involved in vitamin D synthesis using real-time RT-PCR.
(§2) RNA was isolated from cells using a monophasic solution of phenol and guanidine thiocyanate (Trizol, Roche Diagnostics, Mannheim, Germany) according to the manufacturer's protocol. RNA was quantified at 260 nm using a Nanodrop spectrophotometer (NanoDrop Technologies, Wilmington, Del., USA).
(§3) Total RNA previously isolated was reverse-transcribed to cDNA using High Capacity RNA to cDNA kit (Applied Biosystems, Foster City, Calif.) according to the protocol of the supplier. The same amount of total RNA from each sample was converted into cDNA. Each cDNA was diluted ¼ and aliquots were stored at −20° C. until the PCR reactions were carried out.
(§4) Real-time RT-PCR was performed for two reference genes: 18S ribosomal RNA (18S rRNA), glyceraldehyde-3-phosphate dehydrogenase (GAPDH), and 11 target genes alkaline phospathase (ALP), Interleukin 6 (IL-6), Collagen (Coll-1), Osteocalcin (OC), Bone Morphogenetic Protein 2 (BMP-2), Osterix (Osx), Receptor activator of nuclear factor kappa-B ligand (RANKL), Osteoprogesterin (OPG) and genes involved in vitamin D synthesis such as Vitamin D3 25-hydroxylase (CYP27A1), 25 hydroxyvitamin D3-1-alpha hydroxylase (CYP27B1) and 1,25-dihydroxyvitamin D3 24-hydroxylase (CYP24A1).
(§5) Real-time PCR were performed in the Lightcycler 480® (Roche Diagnostics, Germany). Each reaction contained 5 μl of LightCycler-FastStart DNA Master^PLUS SYBR Green I (Roche Diagnostics, Mannheim, Germany), 0.5 μM of the sense and antisense specific primers (Table 1) and 3 μl of the cDNA dilution in a final volume of 10 μl. The normal amplification program consisted of a preincubation step for denaturation of the template cDNA (10 min 95° C.), followed by 45 cycles consisting of a denaturation step (10 s 95° C.), an annealing step (10 s 60° C., except for ALP that was 10 s at 65° C., OSX with 10 s at 68° C. and CYP24A1 at 58° C. 10 s) and an extension step (10 s 72° C.). After each cycle, fluorescence was measured at 72° C. Every run included a negative control without cDNA template. To confirm amplification specificity, PCR products were subjected to a melting curve analysis on the LightCycler and subsequently 2% agarose/TAE gel electrophoresis, Tm and amplicon size, respectively.
(§6) To allow relative quantification after PCR, real-time efficiencies were calculated from the given slopes in the LightCycler 480 software (Roche Diagnostics, Mannheim, Germany) using serial dilutions. Relative quantification after PCR was calculated by normalizing target gene concentration in each sample by the concentration mean of the two reference genes in given sample using the “advanced relative quantification method” provided by the LightCycler 480 analysis software.

MC3T3-E1 cells [2] = assay: ALP activity in cell monolayer on coated titanium implants; settings: Ti implants; day 21; UV-untreated; percentage of ethanol UV-untreated group set to 100%; mean±SEM
Description: (§7) To test the effect of the surface modification, 96-well plates were used. Ti disks were placed into the wells and treatments and UV-activation were performed over there. Cells grown onto untreated polystyrene tissue culture plastic (TCP) were added as a control for all the experiments. Cells were seeded at a density of 30,000 cells/cm^2 and they were maintained in α-MEM supplemented with 10% FCS and antibiotics. Culture media was collected after 48 hours, to test cytotoxicity and the production of the hydroxylated form of vitamin D, 25-D3. Cells were harvested after two days of culture using Trizol reagent (Roche Diagnostics, Mannheim, Germany), to analyze gene expression of several osteoblast differentiation markers and enzymes involved in vitamin D synthesis using real-time RT-PCR. On the other hand, MC3T3-E1 cells were harvested after 21 days to measure calcium content and ALP activity in the cell monolayer.
Cell monolayer was collected at 21 cell differentiation days and PBS 0.1% Triton X-100 was added to solubilize proteins. Cell lysates were put into freeze/thaw cycles (liquid nitrogen and 37° C. water bath) to improve protein recovery. After centrifugation at 33,000 g for 15 min at 4° C., supernatants acquired were assayed for ALP activity, calcium content and total protein determination. ALP activity was calculated by measuring the cleavage of p-Nitrophenyl Phosphate (pNPP) (Sigma, St. Louis, Mo., USA) in a soluble yellow end product which absorbs at 405 nm. A volume of 100 μl of this substrate was used in combination with 25 μl of each sample supernatant or standard point. The standard curve was prepared from calf intestinal alkaline phosphatase (CIAP, 1 U/μl) (Promega, Madison, Wis., USA) by mixing 1 μl from the stock CIAP with 5 ml of alkaline phosphatase buffer (1:5000 dilution), and then making 1:5 serial dilutions. Once the reaction was carried out, after 30 min in dark at room temperature, it was stopped with the addition of 50 μl of 3 M sodium hydroxide. At this point, absorbance was read at 405 nm.
Total protein was determined using a BCA protein assay kit (Pierce, Rockford, Ill., USA). For the analysis, cell supernatants were diluted 1:1 in PBS 0.1% Triton X-100. Standard curve and samples were analyzed as described by the manufacturer and reading the absorbance at 562 nm.

MC3T3-E1 cells [3] = assay: ELISA of 25-D3 and 1,25-D3 released to the culture media, plastic wells; settings: TCP; 48 hours; 2×10^−2 nmols, not irradiated; mean±SEM
Description: as §1
25-D3 and 1,25-D3 released to the culture media after two days of treatment were analyzed by enzyme-linked immunosorbent assay (ELISA). Aliquots from the culture media were centrifuged at 1800 rpm for 5 minutes at 4° C. and supernatants were used for 25-D3 and 1,25-D3 determination following instructions described by the manufacturer (Immunodiagnostic Systems Ltd, Boldon, Tyne and Wear, UK).

MC3T3-E1 cells [4] = assay: Calcium content (mineralization, ICP-AES) on coated titanium implants; settings: Ti implants; 28 days; UV-untreated; data not shown
Description: as §7, with “On the other hand, MC3T3-E1 cells were harvested after 21 days to measure calcium content and ALP activity in the cell monolayer.” left out
[…] Cell lysates were put into freeze/thaw cycles (liquid nitrogen and 37° C. water bath) to improve protein recovery. […] ALP activity was calculated by measuring the cleavage of p-Nitrophenyl Phosphate (pNPP) (Sigma, St. Louis, Mo., USA) in a soluble yellow end product which absorbs at 405 nm. […] At this point, absorbance was read at 405 nm.
To determine calcium content samples were analyzed by inductively coupled plasma atomic emission spectrometry (Optima 5300 DV, PerkinElmer, Massachussetts, USA). […]

MC3T3-E1 cells [5] = assay: Real-time RT-PCR of vitamin D hydroxylation/degradation enzymes (CYP27A1, CYP27B1, CYP24A1), plastic wells; settings: TCP, 2×10^−2 nmols, not irradiated
Description: as §1, §2, §3, §4
Real-time PCR were performed in the Lightcycler 480® (Roche Diagnostics, Germany). […] After each cycle, fluorescence was measured at 72° C. […]
as §6

MC3T3-E1 cells [6] = assay: Real-time RT-PCR of osteoblast differentiation markers, coated titanium implants; settings: Ti implants; 48 h; 2×10^−2 nmols, no UV, compared to control
Description: as §7, §2, §3
as §5, with “Real-time RT-PCR was performed for two reference genes: 18S ribosomal RNA (18S rRNA), glyceraldehyde-3-phosphate dehydrogenase (GAPDH); and eleven target genes: alkaline phosphathase (ALP), Interleukin 6 (IL-6), Collagen (Coll-1), Osteocalcin (OC), Bone Morphogenetic Protein 2 (BMP-2), Osterix (Osx), Receptor activator of nuclear factor kappa-B ligand (RANKL), Osteoprogesterin (OPG) and genes involved in vitamin D synthesis such as Vitamin D3 25-hydroxylase (CYP27A1) and 25 hydroxyvitamin D3-1-alpha hydroxylase (CYP27B1). Real-time” for “Real-time”, “C.)” for “C. and CYP24A1 at 58° C. 10 s)”
To allow relative quantification after PCR, real-time efficiencies were calculated from the given slopes in the LightCycler 480 software (Roche Diagnostics, Mannheim, Germany) using serial dilutions. Relative quantification after PCR was calculated by normalizing target gene concentration in each sample by the concentration mean of the two reference genes in given sample using the Advanced relative quantification method provided by the LightCycler 480 analysis software.

Question: What does the source list for `C=C1CC[C@H](O)C/C1=C/C=C1\CCC[C@]2(C)[C@@H]([C@H](C)CCCC(C)(C)O)CC[C@@H]12` [25-D3, 25-hydroxyvitamin D3, reference compound]?
Answer: IL-6 expression levels (MC3T3-E1 cells [1]): significantly higher expression levels; ALP activity (MC3T3-E1 cells [2]): 77.40±13.40%; 1,25-D3 detected in culture media (MC3T3-E1 cells [3]): 42 ± 4 pmol/L; 25-D3 released to culture media (MC3T3-E1 cells [3]): 415 ± 20 nmol/L; Calcium levels (MC3T3-E1 cells [4]): trend to increased calcium levels; CYP27B1 mRNA expression (MC3T3-E1 cells [5]; 48 h): not statistically different; CYP24A1 mRNA levels (MC3T3-E1 cells [5]; 2 days, data not shown): only detected

Question: Which RANKL gene expression (MC3T3-E1 cells [6]) does the source give for `C=C1CC[C@H](O)C/C1=C/C=C1\CCC[C@]2(C)[C@@H]([C@H](C)CCCC(C)C)CC[C@@H]12` [D3, cholecalciferol, reference compound] here?
Answer: Statistical significances

Question: And the ALP activity (MC3T3-E1 cells [2])?
Answer: 35.28±4.23%

Question: And the “1,25-D3 detected in culture media” value (MC3T3-E1 cells [3])?
Answer: 19.7 ± 0.7 pmol/L

Question: What about the “25-D3 released to culture media” value (MC3T3-E1 cells [3]) of the same molecule?
Answer: 9.1 ± 1.9 nmol/L
